Reference: ChEMBL document CHEMBL1201862, “PubChem BioAssay data set” (2004)
Activity calls are given as the source filed them. Cut-off read from the data, not from the text of the source, for most assays here: actives have a measured EC50 and inactives only a lower limit.

Tests used:
[1] = alpha-synuclein stem-loop luciferase translation blockers – H4 neuroglioma cells, luminescence, confirmation (AID 1988); type: functional, cell-based
[2] = luciferase reporter signal suppression in cells – H4 neuroglioma cells, luminescence, dose response (AID 1990); type: functional, cell-based
[3] = Luminescence Cell-Based Dose Response HTS to Identify Inhibitors of 5'UTR Stem-Loop Driven Prion Protein mRNA Translation in H4 Neuroglioblastoma Cells. [Related pubchem assays: 1827 (Project Summary), 1813 (Primary HTS)]; type: functional
[4] = molecular target: FAD-linked sulfhydryl oxidase ALR (Homo sapiens, UniProt P55789); assay: ALR-catalysed DTT oxidation blockers – biochemical, H2O2 detection, luminescence, cherry-pick, dose response (AID 493248)
[5] = viability of uninfected HEp-2 cells – cell-based, HTS, cytotoxicity control for RSV inhibitor project, dose response (AID 2410); type: functional; conditions: human respiratory syncytial virus
[6] = molecular target: T1, Corticotropin-releasing factor receptor 2/Corticotropin-releasing factor-binding protein (Homo sapiens, UniProt P24387+Q13324); assay: activators of CRF receptor 2 with binding protein – uHTS hits, confirmation (AID 602473); type: functional; conditions: read-out: EC50_Mean
T1 sequence (Q13324 whole entry): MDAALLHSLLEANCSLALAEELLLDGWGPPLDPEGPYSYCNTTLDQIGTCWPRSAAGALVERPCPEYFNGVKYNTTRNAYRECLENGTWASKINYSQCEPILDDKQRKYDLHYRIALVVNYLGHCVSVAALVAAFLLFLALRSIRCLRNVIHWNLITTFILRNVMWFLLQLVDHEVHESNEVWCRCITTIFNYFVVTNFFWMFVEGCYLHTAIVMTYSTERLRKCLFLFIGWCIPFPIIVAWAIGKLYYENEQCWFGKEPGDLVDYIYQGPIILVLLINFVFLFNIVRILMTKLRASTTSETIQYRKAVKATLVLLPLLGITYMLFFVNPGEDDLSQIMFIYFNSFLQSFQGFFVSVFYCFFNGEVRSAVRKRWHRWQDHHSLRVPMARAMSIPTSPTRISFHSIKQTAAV
T1 sequence (P24387 whole entry): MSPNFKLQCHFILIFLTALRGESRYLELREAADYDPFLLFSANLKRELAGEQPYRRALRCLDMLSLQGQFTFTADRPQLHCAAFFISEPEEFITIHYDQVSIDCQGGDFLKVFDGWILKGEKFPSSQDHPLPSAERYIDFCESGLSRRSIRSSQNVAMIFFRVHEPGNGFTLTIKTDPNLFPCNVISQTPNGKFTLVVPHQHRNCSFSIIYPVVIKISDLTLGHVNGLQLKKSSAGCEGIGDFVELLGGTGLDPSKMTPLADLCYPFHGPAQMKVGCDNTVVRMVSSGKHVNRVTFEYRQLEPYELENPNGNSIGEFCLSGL

[7] = Trypanosoma cruzi growth suppression in host cells – NIH3T3 host cells, beta-gal luminescence, confirmation (AID 2044); type: functional, cell-based;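 note: intracellular parasites grown in NIH/3T3 mouse fibroblasts as host cells; luminescent beta-galactosidase reporter signal from transgenic T. cruzi replicating inside host cells; inhibitors lower the luminescence signal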
Cytochrome P450 2D6 = Cytochrome P450 2D6 (Homo sapiens, UniProt P10635);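 note: CYP2D6 member of a cytochrome P450 panel assay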
[8] = NIH3T3 cell viability loss – ATP luminescence, mouse fibroblasts, counter-screen, dose response (AID 2010); type: functional, cell-based;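 note: cells exposed to compound for about 90 hours before reading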
H9c2 = assay: cells; type: functional, cell-based; conditions: Rattus norvegicus, H9c2, Myocardium;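 note: confirmatory concentration-response retest of ultra-high-throughput screening hits for modulation of myocardial damage; cell death induced by hydrogen peroxide oxidative stress; compound pretreatment for 60 min then peroxide exposure for 2 h; potency is for protecting the cells against peroxide damage rather than for killing them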

Sequence of FAD-linked sulfhydryl oxidase ALR (P55789 whole entry): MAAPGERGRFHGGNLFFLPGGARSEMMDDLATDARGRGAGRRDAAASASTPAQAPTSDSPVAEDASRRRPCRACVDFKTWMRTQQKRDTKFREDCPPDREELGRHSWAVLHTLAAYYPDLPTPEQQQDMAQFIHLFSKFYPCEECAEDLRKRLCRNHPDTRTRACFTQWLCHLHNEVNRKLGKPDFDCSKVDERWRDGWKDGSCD
Sequence of Cytochrome P450 2D6 (P10635 whole entry): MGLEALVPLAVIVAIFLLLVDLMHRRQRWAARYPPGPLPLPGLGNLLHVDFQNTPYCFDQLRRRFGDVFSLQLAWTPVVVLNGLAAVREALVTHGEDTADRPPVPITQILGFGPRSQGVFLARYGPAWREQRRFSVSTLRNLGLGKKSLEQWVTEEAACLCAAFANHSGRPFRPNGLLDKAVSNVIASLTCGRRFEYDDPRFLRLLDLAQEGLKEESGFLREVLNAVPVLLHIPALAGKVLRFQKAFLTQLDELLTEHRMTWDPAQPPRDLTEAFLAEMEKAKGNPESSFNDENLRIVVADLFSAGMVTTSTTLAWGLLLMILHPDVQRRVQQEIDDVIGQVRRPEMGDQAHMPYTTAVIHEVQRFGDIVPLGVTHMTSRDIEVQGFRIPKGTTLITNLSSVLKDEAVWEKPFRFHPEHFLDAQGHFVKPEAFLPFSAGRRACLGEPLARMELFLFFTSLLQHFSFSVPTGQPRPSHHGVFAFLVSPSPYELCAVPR

Compound: O=S(=O)(c1ccc(Br)cc1)N1CCC(c2nc3ccccc3[nH]2)CC1
- EC50 [1]: > 120 µM (not active)
- EC50 [2]: 11.9 µM (active)

Compound: COc1ccc(CCNS(=O)(=O)c2cn(C)cn2)cc1OC
- EC50 [3]: > 120 µM (not active)
- EC50 [1]: > 120 µM (not active)
- EC50 [2]: > 120 µM (not active)

Compound: O=C(NCCSc1c[nH]c2ccccc12)C1CC1
- AC50 [4]: 8.01 µM (active)

Compound: CCCCNC(=O)c1onc(CSc2ccc(C)c(C)c2)c1C(=O)O
- AC50 [4]: 8.26 µM (active)

Compound: O=C(C[N+]1=C2SC=C(c3ccccc3)N2CC1)c1ccc(Br)cc1
- AC50 [4]: 0.221 µM (active)

Compound: CN(C(=O)COC(=O)c1c2c(nc3ccccc13)/C(=C/c1cccc([N+](=O)[O-])c1)CCC2)C1CCS(=O)(=O)C1 (stereo not drawn)
- EC50 [3]: > 120 µM (not active)
- EC50 [1]: 11 µM (active)
- EC50 [2]: 11.6 µM (active)

Compound: O=S(=O)(NNc1ccc(F)cc1F)c1cccc(Cl)c1
- AC50 [4]: 1.35 µM (active)

Compound: CCC1Nc2ncnc(N3CCN(c4ccccc4)CC3)c2N(Cc2ccc(Cl)cc2)C1=O (stereo not drawn)
- CC50 [5]: 16.6 µM (active)

Compound: COc1ccc(-c2c(-c3ccsc3)oc(=O)c3cc(OC)c(OC)cc23)cc1
- CC50 [5]: 47.2 µM (active)

Compound: CN(C)Cc1ccccc1Sc1ccc2c(c1)CCCC2
- EC50 [3]: 32.4 µM (active)
- EC50 [1]: > 120 µM (not active)
- EC50 [2]: > 120 µM (not active)

Compound: Brc1ccccc1OCCCOc1cccc2cccnc12
- CC50 [5]: 26.3 µM (active)

Compound: CCOc1ccc(C2C=C(c3ccc(C)cc3)Nc3nnnn32)cc1 (stereo not drawn)
- EC50 [6]: > 53 µM (inactive)

Compound: Cc1cccc(N2CCN(C(=O)CCCn3c(=S)[nH]c4cc5c(cc4c3=O)OCO5)CC2)c1C
- CC50 [5]: 23.4 µM (active)
- EC50 [7]: 0.389 µM (active)
- AC50 (Cytochrome P450 2D6): 10 µM (inconclusive)
- EC50 [8]: > 30 µM (not active)

Compound: COc1ccccc1NC(=O)Nc1ncccc1C
- AC50 [4]: 0.903 µM (active)

Compound: CCC(C)c1ccc(NC(S)=NCCn2cc(Br)cn2)cc1 (stereo not drawn)
- EC50 [3]: > 120 µM (not active)
- EC50 [1]: > 120 µM (not active)
- EC50 [2]: > 120 µM (not active)

Compound: CCc1c(C)nc(Nc2nc(C)c3ccc(OC)cc3n2)nc1O
- IC50 (H9c2): > 79 µM (inactive)

Compound: Cc1ccc2nc(NC(=O)[C@H](C)N3C(=O)C4CC=CCC4C3=O)sc2c1 (stereo partly drawn)
- EC50 [3]: > 120 µM (not active)
- EC50 [2]: 0.556 µM (inconclusive)

Compound: COc1ccc(C(=O)[C@H]2[C@H]3C(=O)N(c4ccccc4)C(=O)[C@H]3C3C=CC=NN32)cc1 (stereo partly drawn)
- EC50 [3]: > 120 µM (not active)
- EC50 [1]: > 120 µM (not active)
- EC50 [2]: > 120 µM (not active)

Compound: Cc1cccc2c(=O)cc(C)n(CC(N)=O)c12
- CC50 [5]: 24.6 µM (active)

Compound: Cc1cc(C)nc(SCc2cccc(C(=O)O)c2)n1
- EC50 [1]: 28.8 µM (active)
- EC50 [2]: 17.5 µM (active)

Compound: C(=C\c1nnc2c3ccccc3ncn12)/c1ccccc1
- EC50 [3]: 7.36 µM (active)

Compound: Brc1ccc(CN2CCN(c3ccccc3)CC2)o1
- AC50 [4]: 2.03 µM (active)

Compound: CCN(CC(=O)Nc1ccc(OC)cc1)C(=O)c1cc(-c2cccs2)nn1-c1ccccc1
- IC50 (H9c2): 36.6 µM (inactive)

Compound: FC(F)(F)c1cccc(-c2ccn3ncnc3n2)c1
- CC50 [5]: 35.5 µM (active)

Compound: O=C(Nc1ccccc1)c1ccc(-c2ccc(Br)cc2)o1
- CC50 [5]: 16.9 µM (active)

Compound: CN1CCN(/N=C/c2nc(-c3cccc([N+](=O)[O-])c3)n3ccccc23)CC1
- EC50 [6]: > 53 µM (inactive)

Compound: Cc1cc(/C=N/NC(=O)c2c(Br)cnn2C)c(C)n1-c1cccc(Br)c1
- CC50 [5]: 41.5 µM (active)

Compound: C=CCOc1ccc(/C=N/NC(=O)c2cc3c(OC)cc(OC)cc3[nH]2)cc1
- CC50 [5]: 27.4 µM (active)

Compound: Cc1ccc(/N=C2\C(Cl)=C(O)OC2OC(C)C)c(C)c1 (stereo not drawn)
- EC50 [3]: 24.8 µM (active)
- EC50 [1]: > 120 µM (not active)
- EC50 [2]: > 120 µM (not active)

Compound: O=c1[nH]nc(Cc2ccccc2)c2ccccc12
- IC50 (H9c2): > 79 µM (inactive)
